{"source": "patent US20120214862A1", "about": "“MODULATION OF FACTOR 7 EXPRESSION” (ISIS Pharmaceuticals, Inc., priority 2009, published 2012)", "key": {"BALB/c mice [1]": {"system": "BALB/c mice", "conditions": "mouse, in vivo; for Blood: BALB/c, 30 min"}, "platelet factor-4 (PF-4)": {"system": "platelet factor-4 (PF-4)", "experiment": "FeCl3 induced venous thrombosis (VT) model, real-time RT-PCR quantification of PF-4 in vena cava as measure of thrombus formation", "format": "in vivo, mouse", "conditions": "for PF-4 (percent of PF-4 mRNA as compared to the PBS + FeCl3 control) / PF-4 (percentage compared to PBS controls): BALB/c mice; for PF-4 (percent of PF-4 mRNA as compared to the PBS + FeCl3 control): no ISIS 403102; for PF-4 (percentage compared to PBS controls): vena cava", "procedure": "(§1) Two control groups of BALB/c mice were treated with PBS, administered subcutaneously twice a week for 3 weeks. Thrombus formation was induced with FeCl3 in half of the mice while the rest of the mice were assayed for tail bleeding. […] Thrombus formation was induced with FeCl3 in all groups of the VT mice except the first control group.\n(§2) In mice undergoing FeCl3 treatment, thrombus formation was induced by applying a piece of filter paper (2×4 min) pre-saturated with 10% FeCl3 solution directly on the vena cava. After 3 minutes of exposure, the filter paper was removed. Thirty minutes after the filter paper application, a fixed length of the vein containing the thrombus was dissected out for platelet analysis. Liver was collected for RNA analysis.\n(§3) Real-time RT-PCR quantification of platelet factor-4 (PF-4) was used to quantify platelets in the vena cava as a measure of thrombus formation.\n(§4) Six additional groups of BALB/c mice was treated with 0.5 mg/kg, 1 mg/kg, 2 mg·kg, 3 mg/kg, 4 mg/kg, or 5 mg/kg of warfarin, administered intraperioneally daily for 6 days. Four hours after the last dose of warfarin, mice were sacrificed. A control group of BALB/c mice were treated with PBS, administered subcutaneously twice a week for 3 weeks. Two days after the last dose of PBS, mice were anesthetized with 150 mg/kg ketamine mixed with 10 mg/kg xylazine administered by intraperitoneal injection. Thrombus formation was induced with FeCl3 in groups of mice except the first control group.\nas §2, with “mm)” for “min)”\nas §3\nThrombus formation was induced with FeCl3 in all of the mice except the first […] control groups. All mice were anesthetized with 150 mg/kg of ketamine mixed with 10 mg/kg of xylazine administered by intraperitoneal injection.\nAfter 3 minutes of exposure, the filter paper was removed. Thirty minutes after the filter paper application, a fixed length of the vein containing the thrombus was dissected out for platelet analysis.\nReal-time PCR quantification of PF-4 was used to quantify platelets in the vena cava as a measure of thrombus formation. […] Data is presented as percent of PF-4 mRNA as compared to the PBS+ FeCl3 control, […]"}, "murine Factor 7 mRNA": {"system": "murine Factor 7 mRNA", "experiment": "Liver Factor 7 mRNA by real-time RT-PCR in treated BALB/c mice", "format": "in vivo, mouse", "procedure": "A control group of mice was injected subcutaneously with PBS twice a week for 3 weeks. After the treatment period, whole liver was collected for RNA and protein analysis, and plasma was collected for clotting analysis (PT/aPTT).\n(§5) RNA was extracted from liver tissue for real-time RT-PCR analysis of Factor 7.\nA control group of 3 mice was injected with a single dose of PBS, and mice in this group were sacrificed on day 1. Mice in all groups were sacrificed by cervical dislocation following anesthesia with 150 mg/kg ketamine mixed with 10 mg/kg xylazine administered by intraperitoneal injection. Liver was harvested for RNA analysis and plasma was collected for clotting analysis (PT and aPTT).\nas §5\nMice from the first group were sacrificed on days 1 and 3 after the single dose. […] A control group of 3 mice was injected with PBS in a single dose. Mice from the control group were sacrificed 1 day later. Mice in all groups were sacrificed by cervical dislocation following anesthesia with 150 mg/kg ketamine mixed with 10 mg/kg xylazine administered by intraperitoneal injection. Liver was harvested for RNA analysis and plasma was collected for clotting analysis (PT and aPTT) for mice in all groups.\nRNA was extracted from liver tissue for quantitative RT-PCR analysis of Factor 7.\nas §1, §5\nas §4, with “A fifth group” for “Six additional groups”, “with” for “with 0.5 mg/kg, 1 mg/kg, 2 mg·kg,”, “3” for “3 mg/kg, 4 mg/kg, or 5”"}, "BALB/c mice [2]": {"system": "BALB/c mice", "experiment": "Tail bleeding assay", "conditions": "for Blood: BALB/c mice, blood collected over 40 minutes, PBS 0.06"}}, "note": "Where two headings read alike, the source gives them in different places.", "data": [{"compound": "COc1ccc(-n2nc(C(N)=O)c3c2C(=O)N(c2ccc(N4CCCCC4=O)cc2)CC3)cc1", "note": "[Apixaban, reference compound]", "values": [{"measurement": "Blood", "setting": "BALB/c mice [1]; ip, 5 mg/kg", "value": 0.22, "unit": "g"}, {"measurement": "Blood", "setting": "BALB/c mice [1]; ip, 10 mg/kg", "value": 0.58, "unit": "g"}, {"measurement": "Blood", "setting": "BALB/c mice [1]; sc, 10 mg/kg", "value": 0.04, "unit": "g"}, {"measurement": "bleeding compared to PBS treated mice", "setting": "BALB/c mice [1]; ip, 5 mg/kg", "value": "same amount of bleeding as PBS treated mice"}, {"measurement": "bleeding compared to PBS treated mice", "setting": "BALB/c mice [1]; ip, 10 mg/kg", "value": "increased bleeding"}, {"measurement": "bleeding compared to PBS treated mice", "setting": "BALB/c mice [1]; sc, 10 mg/kg", "value": "less bleeding than PBS mice"}]}, {"compound": "COC(=O)[C@H](c1ccccc1Cl)N1CCc2sccc2C1", "note": "[Plavix, clopidogrel, reference compound]", "values": [{"measurement": "PF-4 (percent of PF-4 mRNA as compared to the PBS + FeCl3 control)", "setting": "platelet factor-4 (PF-4); FeCl3, Plavix 6.25 mg/kg", "value": 61, "unit": "%"}, {"measurement": "PF-4 (percent of PF-4 mRNA as compared to the PBS + FeCl3 control)", "setting": "platelet factor-4 (PF-4); FeCl3, Plavix 12.50 mg/kg", "value": 24, "unit": "%"}, {"measurement": "PF-4 (percent of PF-4 mRNA as compared to the PBS + FeCl3 control)", "setting": "platelet factor-4 (PF-4); FeCl3, Plavix 25.00 mg/kg", "value": 13, "unit": "%"}, {"measurement": "PF-4 (percent of PF-4 mRNA as compared to the PBS + FeCl3 control)", "setting": "platelet factor-4 (PF-4); FeCl3, Plavix 50.00 mg/kg", "value": 6, "unit": "%"}, {"measurement": "PF-4 in comparison to the PBS control", "setting": "platelet factor-4 (PF-4); Example 22, Plavix 6.25-50.00 mg/kg, three doses over two days", "value": "reduction of PF-4"}]}, {"compound": "CC(=O)CC(c1ccccc1)c1c(O)c2ccccc2oc1=O", "note": "(stereo not drawn) [warfarin, reference compound]", "values": [{"measurement": "reduction of Factor 7 mRNA as compared to the PBS control", "setting": "murine Factor 7 mRNA; Example 15, 3 mg/kg intraperitoneally daily for 6 days", "value": "did not result in significant reduction"}, {"measurement": "% inhibition of Factor 7 mRNA", "setting": "murine Factor 7 mRNA; liver, BALB/c mice, FeCl3 VT model, 3 mg/kg i.p. daily for 6 days, relative to PBS control", "value": 10, "unit": "%"}, {"measurement": "PF-4 in comparison to the PBS control", "setting": "platelet factor-4 (PF-4); Example 16, dose of 1 mg/kg and higher, intraperitoneally daily for 6 days", "value": "reduction of PF-4"}, {"measurement": "PF-4 (percentage compared to PBS controls)", "setting": "platelet factor-4 (PF-4); FeCl3, 0.5 mg/kg i.p. daily for 6 days", "value": 165, "unit": "%"}, {"measurement": "PF-4 (percentage compared to PBS controls)", "setting": "platelet factor-4 (PF-4); FeCl3, 1 mg/kg i.p. daily for 6 days", "value": 63, "unit": "%"}, {"measurement": "PF-4 (percentage compared to PBS controls)", "setting": "platelet factor-4 (PF-4); FeCl3, 2 mg/kg i.p. daily for 6 days", "value": 47, "unit": "%"}, {"measurement": "PF-4 (percentage compared to PBS controls)", "setting": "platelet factor-4 (PF-4); FeCl3, 3 mg/kg i.p. daily for 6 days", "value": 35, "unit": "%"}, {"measurement": "PF-4 (percentage compared to PBS controls)", "setting": "platelet factor-4 (PF-4); FeCl3, 4 mg/kg i.p. daily for 6 days", "value": 22, "unit": "%"}, {"measurement": "PF-4 (percentage compared to PBS controls)", "setting": "platelet factor-4 (PF-4); FeCl3, 5 mg/kg i.p. daily for 6 days", "value": 0, "unit": "%"}, {"measurement": "Blood", "setting": "BALB/c mice [2]; 0.5 mg/kg i.p. daily for 6 days", "value": 0.16, "unit": "g"}, {"measurement": "Blood", "setting": "BALB/c mice [2]; 1 mg/kg i.p. daily for 6 days", "value": 0.28, "unit": "g"}, {"measurement": "Blood", "setting": "BALB/c mice [2]; 2 mg/kg i.p. daily for 6 days", "value": 0.58, "unit": "g"}, {"measurement": "Blood", "setting": "BALB/c mice [2]; 3 mg/kg i.p. daily for 6 days", "value": 0.78, "unit": "g"}, {"measurement": "Blood", "setting": "BALB/c mice [2]; 4 mg/kg i.p. daily for 6 days", "value": 0.66, "unit": "g"}, {"measurement": "Blood", "setting": "BALB/c mice [2]; 5 mg/kg i.p. daily for 6 days", "value": 0.93, "unit": "g"}, {"measurement": "bleeding as compared to PBS control mice", "setting": "BALB/c mice [2]; Example 17, 0.5-5 mg/kg intraperitoneally daily for 6 days", "value": "did increase bleeding"}]}]}
